Data from US9682995B2, “Amino-substituted isothiazoles” (BAYER PHARMA AKTIENGESELLSCHAFT, priority 2013, dated 2017).

Legend:
Assay in all cases: Kinase Profiling (KINOMEscan)
Format in all cases: binding
[1] = target: 456 kinases (of these 395 non-mutant kinases) (Homo sapiens, UniProt Q8N5S9); settings: CAMKK1; 10 μM
[2] = target: 456 kinases (of these 395 non-mutant kinases) (Homo sapiens, UniProt P49840); settings: GSK3A; 10 μM
[3] = target: 456 kinases (of these 395 non-mutant kinases) (Homo sapiens, UniProt Q9UM73, C1156Y); settings: ALK(C1156Y); 10 μM
[4] = target: 456 kinases (of these 395 non-mutant kinases) (Homo sapiens, UniProt Q05655); settings: PRKCD; 10 μM
[5] = target: 456 kinases (of these 395 non-mutant kinases) (Homo sapiens, UniProt P33981); settings: TTK; 10 μM
[6] = target: 456 kinases (of these 395 non-mutant kinases) (Homo sapiens, UniProt P09769); settings: FGR; 10 μM
[7] = target: 456 kinases (of these 395 non-mutant kinases) (Homo sapiens, UniProt Q5VT25); settings: MRCKA; 10 μM
[8] = target: 456 kinases (of these 395 non-mutant kinases) (Homo sapiens, UniProt Q16832); settings: DDR2; 10 μM
[9] = target: 456 kinases (of these 395 non-mutant kinases) (Homo sapiens, UniProt Q05397); settings: FAK; 10 μM
[10] = target: 456 kinases (of these 395 non-mutant kinases) (Homo sapiens, UniProt Q15303); settings: ERBB4; 10 μM
[11] = target: 456 kinases (of these 395 non-mutant kinases) (Homo sapiens, UniProt O00750); settings: PIK3C2B; 10 μM
[12] = target: 456 kinases (of these 395 non-mutant kinases) (Homo sapiens, UniProt P21127); settings: CDC2L1; 10 μM
[13] = target: 456 kinases (of these 395 non-mutant kinases) (Homo sapiens, UniProt P11309); settings: PIM1; 10 μM
[14] = target: 456 kinases (of these 395 non-mutant kinases) (Homo sapiens, UniProt Q15139); settings: PRKD1; 10 μM
[15] = target: 456 kinases (of these 395 non-mutant kinases) (Homo sapiens, UniProt O75716); settings: STK16; 10 μM
[16] = target: 456 kinases (of these 395 non-mutant kinases) (Homo sapiens, UniProt Q92772); settings: CDKL2; 10 μM
[17] = target: 456 kinases (of these 395 non-mutant kinases) (Homo sapiens, UniProt Q9Y2U5); settings: MAP3K2; 10 μM
[18] = target: 456 kinases (of these 395 non-mutant kinases) (Homo sapiens, UniProt Q6ZN16); settings: MAP3K15; 10 μM
[19] = target: 456 kinases (of these 395 non-mutant kinases) (Homo sapiens, UniProt Q9Y2H9); settings: MAST1; 10 μM
[20] = target: 456 kinases (of these 395 non-mutant kinases) (Homo sapiens, UniProt Q92918); settings: HPK1; 10 μM
[21] = target: 456 kinases (of these 395 non-mutant kinases) (Homo sapiens, UniProt Q04912); settings: MST1R; 10 μM
[22] = target: 456 kinases (of these 395 non-mutant kinases) (Homo sapiens, UniProt P51451); settings: BLK; 10 μM
[23] = target: 456 kinases (of these 395 non-mutant kinases) (Homo sapiens, UniProt Q15835); settings: GRK1; 10 μM
[24] = target: 456 kinases (of these 395 non-mutant kinases) (Homo sapiens, UniProt Q13177); settings: PAK2; 10 μM
[25] = target: 456 kinases (of these 395 non-mutant kinases) (Homo sapiens, UniProt P04049); settings: RAF1; 10 μM
[26] = target: 456 kinases (of these 395 non-mutant kinases) (Homo sapiens, UniProt Q9NY57); settings: YANK2; 10 μM
[27] = target: 456 kinases (of these 395 non-mutant kinases) (Homo sapiens, UniProt Q96L34); settings: MARK4; 10 μM
[28] = target: 456 kinases (of these 395 non-mutant kinases) (Homo sapiens, UniProt Q12866); settings: MERTK; 10 μM
[29] = target: 456 kinases (of these 395 non-mutant kinases) (Homo sapiens, UniProt Q02763); settings: TIE2; 10 μM
[30] = target: 456 kinases (of these 395 non-mutant kinases) (Homo sapiens, UniProt P00519, T315I); settings: 10 μM
[31] = target: 456 kinases (of these 395 non-mutant kinases) (Homo sapiens, UniProt Q86V86); settings: PIM3; 10 μM
[32] = target: 456 kinases (of these 395 non-mutant kinases) (Homo sapiens, UniProt Q06187); settings: BTK; 10 μM
456 kinases (of these 395 non-mutant kinases) (Homo sapiens, UniProt Q06187), sequence (Q06187 2-659 limits assumed, change not shown): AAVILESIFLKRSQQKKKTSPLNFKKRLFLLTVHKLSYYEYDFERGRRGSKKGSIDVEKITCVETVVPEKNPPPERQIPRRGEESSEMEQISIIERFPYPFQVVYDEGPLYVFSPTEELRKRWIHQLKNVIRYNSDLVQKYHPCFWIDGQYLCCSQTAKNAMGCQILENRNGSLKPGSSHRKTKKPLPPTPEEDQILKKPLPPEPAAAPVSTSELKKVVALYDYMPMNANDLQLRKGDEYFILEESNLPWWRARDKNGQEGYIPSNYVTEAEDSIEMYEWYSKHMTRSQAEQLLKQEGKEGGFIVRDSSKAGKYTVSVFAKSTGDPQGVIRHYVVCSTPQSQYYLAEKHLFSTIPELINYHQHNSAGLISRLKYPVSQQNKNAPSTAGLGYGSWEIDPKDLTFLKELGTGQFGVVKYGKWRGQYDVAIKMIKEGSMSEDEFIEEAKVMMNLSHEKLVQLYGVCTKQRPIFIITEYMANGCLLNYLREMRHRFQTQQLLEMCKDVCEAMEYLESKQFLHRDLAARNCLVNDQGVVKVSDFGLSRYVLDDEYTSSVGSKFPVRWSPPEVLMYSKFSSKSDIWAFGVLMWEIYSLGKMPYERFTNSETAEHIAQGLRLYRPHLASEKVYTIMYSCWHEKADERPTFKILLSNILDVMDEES

456 kinases (of these 395 non-mutant kinases) (Homo sapiens, UniProt Q13177), sequence (Q13177 2-524 limits assumed, change not shown): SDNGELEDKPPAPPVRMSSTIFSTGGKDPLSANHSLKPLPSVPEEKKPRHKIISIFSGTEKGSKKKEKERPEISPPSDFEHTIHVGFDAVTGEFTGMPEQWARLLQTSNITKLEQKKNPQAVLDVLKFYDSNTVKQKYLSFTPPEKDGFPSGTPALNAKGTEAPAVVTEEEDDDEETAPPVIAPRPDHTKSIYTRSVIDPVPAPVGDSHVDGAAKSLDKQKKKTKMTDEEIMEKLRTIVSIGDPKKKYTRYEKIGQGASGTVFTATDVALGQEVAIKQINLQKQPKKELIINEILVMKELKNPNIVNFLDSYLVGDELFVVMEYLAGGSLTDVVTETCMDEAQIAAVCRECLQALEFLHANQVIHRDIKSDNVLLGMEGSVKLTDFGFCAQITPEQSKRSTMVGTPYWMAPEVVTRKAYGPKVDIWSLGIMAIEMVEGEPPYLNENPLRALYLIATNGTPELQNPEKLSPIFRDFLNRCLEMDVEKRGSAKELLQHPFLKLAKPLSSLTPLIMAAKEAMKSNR
456 kinases (of these 395 non-mutant kinases) (Homo sapiens, UniProt P51451), sequence (P51451 2-505 limits assumed, change not shown): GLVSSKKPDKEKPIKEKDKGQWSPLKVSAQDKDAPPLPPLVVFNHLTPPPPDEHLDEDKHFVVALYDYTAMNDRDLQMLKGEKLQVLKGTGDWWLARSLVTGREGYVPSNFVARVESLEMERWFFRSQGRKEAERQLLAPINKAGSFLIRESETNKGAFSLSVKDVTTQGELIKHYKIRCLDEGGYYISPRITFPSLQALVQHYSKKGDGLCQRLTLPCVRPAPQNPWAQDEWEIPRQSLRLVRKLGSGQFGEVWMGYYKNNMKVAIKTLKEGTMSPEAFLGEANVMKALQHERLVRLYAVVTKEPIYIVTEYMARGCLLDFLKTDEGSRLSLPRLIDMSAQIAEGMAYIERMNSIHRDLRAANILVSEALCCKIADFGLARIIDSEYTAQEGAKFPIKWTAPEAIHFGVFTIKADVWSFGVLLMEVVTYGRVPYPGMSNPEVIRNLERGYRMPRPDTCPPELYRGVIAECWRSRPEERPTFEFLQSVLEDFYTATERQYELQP
456 kinases (of these 395 non-mutant kinases) (Homo sapiens, UniProt Q9UM73, C1156Y), sequence (Q9UM73 19-1620 C1156Y limits assumed): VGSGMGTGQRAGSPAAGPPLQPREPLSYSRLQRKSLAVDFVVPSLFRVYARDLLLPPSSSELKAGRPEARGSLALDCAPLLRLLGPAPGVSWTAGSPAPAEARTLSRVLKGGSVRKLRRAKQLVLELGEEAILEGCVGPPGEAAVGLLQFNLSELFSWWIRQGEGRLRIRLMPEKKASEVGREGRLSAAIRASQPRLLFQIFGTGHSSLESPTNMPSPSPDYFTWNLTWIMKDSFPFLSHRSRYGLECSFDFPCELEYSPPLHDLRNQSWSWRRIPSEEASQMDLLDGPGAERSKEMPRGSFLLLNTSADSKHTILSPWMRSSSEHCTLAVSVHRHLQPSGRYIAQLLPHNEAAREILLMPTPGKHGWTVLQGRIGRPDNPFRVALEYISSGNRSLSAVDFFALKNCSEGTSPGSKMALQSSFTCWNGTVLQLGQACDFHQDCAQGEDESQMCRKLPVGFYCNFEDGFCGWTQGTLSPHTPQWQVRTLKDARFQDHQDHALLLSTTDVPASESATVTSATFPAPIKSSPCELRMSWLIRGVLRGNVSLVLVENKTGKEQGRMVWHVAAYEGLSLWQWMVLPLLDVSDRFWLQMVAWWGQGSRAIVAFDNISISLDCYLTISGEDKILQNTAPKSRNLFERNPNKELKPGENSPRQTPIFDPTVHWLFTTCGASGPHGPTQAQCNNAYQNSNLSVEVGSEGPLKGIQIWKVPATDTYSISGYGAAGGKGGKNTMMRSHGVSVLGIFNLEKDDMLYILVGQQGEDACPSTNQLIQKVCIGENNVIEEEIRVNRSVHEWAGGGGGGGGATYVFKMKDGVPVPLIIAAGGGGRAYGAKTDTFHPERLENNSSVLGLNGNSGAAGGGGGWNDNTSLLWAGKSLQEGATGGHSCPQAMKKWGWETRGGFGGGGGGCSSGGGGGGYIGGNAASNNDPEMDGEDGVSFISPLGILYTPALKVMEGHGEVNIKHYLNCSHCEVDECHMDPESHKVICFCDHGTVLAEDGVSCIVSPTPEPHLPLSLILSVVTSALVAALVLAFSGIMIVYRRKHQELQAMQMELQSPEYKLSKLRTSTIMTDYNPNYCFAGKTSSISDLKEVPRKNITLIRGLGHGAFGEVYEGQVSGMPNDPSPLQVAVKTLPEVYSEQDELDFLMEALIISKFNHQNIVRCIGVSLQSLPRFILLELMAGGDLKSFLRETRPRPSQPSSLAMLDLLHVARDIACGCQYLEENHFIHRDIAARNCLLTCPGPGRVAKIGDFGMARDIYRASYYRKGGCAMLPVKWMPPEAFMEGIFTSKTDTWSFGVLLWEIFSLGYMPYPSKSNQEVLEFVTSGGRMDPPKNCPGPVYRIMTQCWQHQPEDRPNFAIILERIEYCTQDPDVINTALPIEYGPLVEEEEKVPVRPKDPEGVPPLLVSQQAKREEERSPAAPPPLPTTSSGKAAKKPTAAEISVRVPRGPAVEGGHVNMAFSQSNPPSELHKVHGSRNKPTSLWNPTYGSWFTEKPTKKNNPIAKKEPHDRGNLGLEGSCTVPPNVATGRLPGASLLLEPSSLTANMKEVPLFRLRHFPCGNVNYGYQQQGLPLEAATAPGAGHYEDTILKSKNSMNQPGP
456 kinases (of these 395 non-mutant kinases) (Homo sapiens, UniProt Q15303), sequence (Q15303 26-1308 limits assumed, change not shown): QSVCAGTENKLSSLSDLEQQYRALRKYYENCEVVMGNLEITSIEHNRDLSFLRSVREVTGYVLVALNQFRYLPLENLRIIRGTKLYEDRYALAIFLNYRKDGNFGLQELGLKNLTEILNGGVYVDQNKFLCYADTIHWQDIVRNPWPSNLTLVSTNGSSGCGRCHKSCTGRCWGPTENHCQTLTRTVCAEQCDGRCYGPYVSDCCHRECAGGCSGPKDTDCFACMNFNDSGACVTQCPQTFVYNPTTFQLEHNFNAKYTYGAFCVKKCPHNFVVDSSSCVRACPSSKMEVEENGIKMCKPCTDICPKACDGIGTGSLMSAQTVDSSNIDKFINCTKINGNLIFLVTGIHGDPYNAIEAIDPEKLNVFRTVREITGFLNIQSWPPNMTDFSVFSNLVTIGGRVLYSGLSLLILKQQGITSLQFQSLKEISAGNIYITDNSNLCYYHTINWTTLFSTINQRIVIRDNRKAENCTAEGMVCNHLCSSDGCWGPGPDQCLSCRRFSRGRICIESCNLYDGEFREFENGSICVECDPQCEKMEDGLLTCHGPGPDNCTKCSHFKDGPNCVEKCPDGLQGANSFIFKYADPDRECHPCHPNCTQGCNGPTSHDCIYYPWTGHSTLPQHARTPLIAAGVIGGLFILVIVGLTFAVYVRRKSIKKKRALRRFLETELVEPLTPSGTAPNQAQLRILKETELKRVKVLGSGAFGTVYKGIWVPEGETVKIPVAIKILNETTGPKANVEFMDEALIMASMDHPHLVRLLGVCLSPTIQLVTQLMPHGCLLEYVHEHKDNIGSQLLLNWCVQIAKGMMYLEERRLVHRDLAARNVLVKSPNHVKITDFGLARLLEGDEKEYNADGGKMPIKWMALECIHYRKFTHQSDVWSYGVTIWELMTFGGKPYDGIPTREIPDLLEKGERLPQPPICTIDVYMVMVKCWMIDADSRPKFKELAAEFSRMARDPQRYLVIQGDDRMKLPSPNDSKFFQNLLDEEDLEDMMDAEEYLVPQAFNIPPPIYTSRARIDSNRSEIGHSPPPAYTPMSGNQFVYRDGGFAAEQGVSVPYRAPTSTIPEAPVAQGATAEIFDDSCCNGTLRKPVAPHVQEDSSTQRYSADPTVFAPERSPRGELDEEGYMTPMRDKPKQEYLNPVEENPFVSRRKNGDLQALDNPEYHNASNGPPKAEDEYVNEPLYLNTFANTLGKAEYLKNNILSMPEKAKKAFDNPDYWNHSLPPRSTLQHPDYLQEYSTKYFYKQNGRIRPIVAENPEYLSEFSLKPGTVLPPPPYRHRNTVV
456 kinases (of these 395 non-mutant kinases) (Homo sapiens, UniProt P09769), sequence (P09769 2-529 limits assumed, change not shown): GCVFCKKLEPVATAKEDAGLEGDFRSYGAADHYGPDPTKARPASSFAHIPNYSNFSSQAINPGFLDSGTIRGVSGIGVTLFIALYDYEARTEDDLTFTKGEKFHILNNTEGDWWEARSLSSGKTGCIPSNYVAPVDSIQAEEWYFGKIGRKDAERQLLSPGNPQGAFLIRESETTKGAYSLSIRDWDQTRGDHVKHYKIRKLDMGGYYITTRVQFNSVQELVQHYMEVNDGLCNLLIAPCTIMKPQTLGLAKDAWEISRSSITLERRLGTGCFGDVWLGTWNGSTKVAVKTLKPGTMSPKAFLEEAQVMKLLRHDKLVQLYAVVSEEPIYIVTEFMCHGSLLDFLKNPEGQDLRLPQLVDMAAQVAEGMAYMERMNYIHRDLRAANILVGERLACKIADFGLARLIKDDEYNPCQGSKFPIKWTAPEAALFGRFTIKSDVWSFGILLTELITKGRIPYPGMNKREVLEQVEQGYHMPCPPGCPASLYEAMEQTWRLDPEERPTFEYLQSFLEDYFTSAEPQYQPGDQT

## CCc1ccccc1NC(=O)c1c(C)nsc1Nc1cnc2cc(F)ccc2n1 [Example 20, N-(2-Ethylphenyl)-5-[(6-fluoroquinoxalin-2-yl)amino]-3-methyl-1,2-thiazole-4-carboxamide]
[1]
  % Ctrl @ 10 μM: 80 % Ctrl
[2]
  % Ctrl @ 10 μM: 68 % Ctrl
[3]
  % Ctrl @ 10 μM: 100 % Ctrl
[4]
  % Ctrl @ 10 μM: 85 % Ctrl
[5]
  % Ctrl @ 10 μM: 72 % Ctrl
[6]
  % Ctrl @ 10 μM: 80 % Ctrl
[7]
  % Ctrl @ 10 μM: 92 % Ctrl
[8]
  % Ctrl @ 10 μM: 100 % Ctrl
[9]
  % Ctrl @ 10 μM: 94 % Ctrl
[10]
  % Ctrl @ 10 μM: 100 % Ctrl
[11]
  % Ctrl @ 10 μM: 100 % Ctrl
[12]
  % Ctrl @ 10 μM: 92 % Ctrl
[13]
  % Ctrl @ 10 μM: 100 % Ctrl
[14]
  % Ctrl @ 10 μM: 88 % Ctrl
[15]
  % Ctrl @ 10 μM: 100 % Ctrl
[16]
  % Ctrl @ 10 μM: 100 % Ctrl
[17]
  % Ctrl @ 10 μM: 100 % Ctrl
[18]
  % Ctrl @ 10 μM: 100 % Ctrl
[19]
  % Ctrl @ 10 μM: 67 % Ctrl
[20]
  % Ctrl @ 10 μM: 60 % Ctrl
[21]
  % Ctrl @ 10 μM: 100 % Ctrl
[22]
  % Ctrl @ 10 μM: 100 % Ctrl
[23]
  % Ctrl @ 10 μM: 100 % Ctrl
[24]
  % Ctrl @ 10 μM: 100 % Ctrl
[25]
  % Ctrl @ 10 μM: 100 % Ctrl
[26]
  % Ctrl @ 10 μM: 100 % Ctrl
[27]
  % Ctrl @ 10 μM: 100 % Ctrl
[28]
  % Ctrl @ 10 μM: 98 % Ctrl
[29]
  % Ctrl @ 10 μM: 100 % Ctrl
[30]; ABL1(T315I)-nonphosphorylated
  % Ctrl @ 10 μM: 100 % Ctrl
[30]; ABL1(T315I)-phosphorylated
  % Ctrl @ 10 μM: 87 % Ctrl
[31]
  % Ctrl @ 10 μM: 100 % Ctrl
[32]
  % Ctrl @ 10 μM: 98 % Ctrl
